Values quoted from earlier work in patent US20130202654A1, “Topical Foam Composition” (priority 2009, published 2013).
Read-outs that look alike come from different tables or passages of the source.

How the values were obtained:
[1] = not given; remark: listed apart in the source
[2] = not given; remark: listed apart in the source

## CO[C@H]1/C=C/O[C@@]2(C)Oc3c(C)c(O)c4c(O)c(c5c(nc6cc(C)ccn65)c4c3C2=O)NC(=O)/C(C)=C\C=C\[C@H](C)[C@H](O)[C@@H](C)[C@@H](O)[C@@H](C)[C@H](OC(C)=O)[C@@H]1C [Rifaximin, (2S,16Z,18E,20S,21S,22R,23R,24R,25S,26S,27S,28E)-5,6,21,23,25-pentahydroxy-27-methoxy-2,4,11,16,20,22,24,26-octamethyl-2,7-(epoxypentadeca-[1,11,13]trienimino)benzofuro[4,5-e]pyrido[1,2-a]-benzimida-zole-1,15(2H)-dione,25-acetate]
In vivo
  Tmax: 0.8 h
  half-life: 1.8 h
Low systemic absorption
  Cmax: 3.4 ng/mL
[1]
  bound to plasma proteins: 67.5%
[2]; alcohol, ethyl acetate, chloroform, toluene
  solubility in alcohol, ethyl acetate, chloroform and toluene: soluble
[2]; alcohols
  solubility in alcohols: readily soluble
[2]
  solubility in water: water insoluble
[2]; listed as rifaximin
  solubility in water: virtually insoluble in water
